The values below come from US20070128217A1 (priority 2003, published 2007).

Test [1] deals with rabbit serum obtained by immunizing a rabbit with the SARS-CoV strain Frankfurt 1. Type of test: binding. Also noted: Binding of a rabbit serum to linear peptides / Binding of a rabbit serum to looped peptides / Rabbit serum linear peptides / Rabbit serum looped peptides / Binding of a rabbit serum to linear peptides of protein N of SARS-CoV Urbani (Rabbit serum linear peptides) / Binding of a rabbit serum to looped/cyclic peptides of protein N of SARS-CoV Urbani (Rabbit serum looped peptides): unit not given here.

Test [2] concerns control sera (pooled serum of ten healthy LUMC hospital workers; commercial negative donor pooled serum from the Dutch bloodbank). Type of test: binding, human. Set-up: Binding of Control serum LUMC to linear peptides / Binding of Control serum Blood-bank to linear peptides / Binding of Control serum LUMC to looped peptides / Binding of Control Serum Blood-Bank to Looped peptides / Binding of Control serum LUMC to linear peptides of the protein M of SARS-CoV Urbani / Binding of Control serum Blood-bank to linear peptides of the protein M of SARS-CoV Urbani / Binding of Control serum LUMC to looped peptides of the protein M of SARS-CoV Urbani / Binding of Control Serum Blood-Bank to Looped peptides of the protein M of SARS-CoV Urbani: unit not given here.

Test [3] relates to antibodies in sera from SARS patients (sera 1a, 1b, 2, 6, 37, 62, London, SARS-yellow, SARS-green). Type of test: binding, human. Set-up: Binding of serum 6 to linear peptides of protein X1 of SARS-CoV Urbani / Binding of serum 37 to linear peptides of protein X1 of SARS-CoV Urbani / Binding of serum 6 to looped/cyclic peptide (PEPSCAN-ELISA) / Binding of serum 37 to looped/cyclic peptide (PEPSCAN-ELISA) / Binding of serum 37 to looped/cyclic peptides of protein X1 of SARS-CoV Urbani / Binding of serum 6 to linear peptides of protein X2 / Binding of serum 37 to linear peptides of protein X2 / Binding of serum 37 to looped/cyclic peptides of protein X2 of SARS-CoV Urbani / Binding of serum 6 to linear peptides of protein M of SARS-CoV Urbani / Binding of serum 37 to linear peptides of protein M of SARS-CoV Urbani / Binding of serum 6 to looped/cyclic peptides of protein M of SARS-CoV Urbani / Binding of serum 37 to looped/cyclic peptides of protein M of SARS-CoV Urbani / Binding of serum 6 to linear peptides of protein X3 of SARS-CoV Urbani / Binding of serum 37 to linear peptides of protein X3 of SARS-CoV Urbani / Binding of serum 37 to looped/cyclic peptides of protein X3 of SARS-CoV Urbani / Binding of serum 6 to linear peptides of protein X4 of SARS-CoV Urbani / Binding of serum 37 to linear peptides of protein X4 of SARS-CoV Urbani / Binding of serum 37 to looped/cyclic peptides of protein X4 of SARS-CoV Urbani / Binding of serum 6 to linear peptides of protein X5 of SARS-CoV Urbani / Binding of serum 37 to linear peptides of protein X5 of SARS-CoV Urbani / Binding of serum 37 to looped/cyclic peptides of protein X5 of SARS-CoV Urbani / Binding of serum 6 to linear peptides of protein N of SARS-CoV Urbani / Binding of serum 37 to linear peptides of protein N of SARS-CoV Urbani / Binding of serum 6 to linear peptide (PEPSCAN-ELISA) / Binding of serum 1a to looped/cyclic peptides of protein N of SARS-CoV Urbani / Binding of serum 1b to looped/cyclic peptides of protein N of SARS-CoV Urbani / Binding of serum 2 to looped/cyclic peptides of protein N of SARS-CoV Urbani / Binding of serum 6 to looped/cyclic peptides of protein N of SARS-CoV Urbani / Binding of serum 37 to looped/cyclic peptides of protein N of SARS-CoV Urbani / Binding of serum 62 to looped/cyclic peptides of protein N of SARS-CoV Urbani / Binding of serum London to looped/cyclic peptides of protein N of SARS-CoV Urbani / Binding of serum SARS-green to looped/cyclic peptides of protein N of SARS-CoV Urbani: unit not given here.

In the case of TRHTYQLRARSVSPK, the “Recognition of the peptide by the rabbit serum” value in test [1] is given as “recognized”. In test [2], the “Binding of Control Serum Blood-Bank to Looped peptides” value stood at 0.7, the “Binding of Control serum Blood-bank to linear peptides” value came out at 0.9, the “Binding of Control serum LUMC to linear peptides” value turned out to be 0.9 and the “Binding of Control serum LUMC to looped peptides” value came out at 0.7. Also, in test [3], the “Binding of serum 1a to linear peptides of protein X4 of SARS-CoV Urbani” value was found to be 0.8, the “Binding of serum 1a to looped/cyclic peptides of protein X4 of SARS-CoV Urbani” value was found to be 0.8, the “Binding of serum 1b to linear peptides of protein X4 of SARS-CoV Urbani” value is on record as 0.7 and the “Binding of serum 1b to looped/cyclic peptides of protein X4 of SARS-CoV Urbani” value is reported as 0.4. Also, in test [3], the “Binding of serum 2 to linear peptides of protein X4 of SARS-CoV Urbani” value is 0.7, the “Binding of serum 2 to looped/cyclic peptides of protein X4 of SARS-CoV Urbani” value turned out to be 0.8, the “Binding of serum 6 to linear peptides of protein X4 of SARS-CoV Urbani” value turned out to be 1.3 and the “Binding of serum 6 to looped/cyclic peptides of protein X4 of SARS-CoV Urbani” value was found to be 0.9. In addition, in test [3], the “Binding of serum 37 to linear peptides of protein X4 of SARS-CoV Urbani” value is 1.0, the “Binding of serum 37 to looped/cyclic peptides of protein X4 of SARS-CoV Urbani” value amounted to 0.7, the “Binding of serum 62 to linear peptides of protein X4 of SARS-CoV Urbani” value came to 0.9 and the “Binding of serum 62 to looped/cyclic peptides of protein X4 of SARS-CoV Urbani” value worked out at 0.6. For the same sequence, in test [3], the “Binding of serum London to linear peptides of protein X4 of SARS-CoV Urbani” value came out at 0.8, the “Binding of serum London to looped/cyclic peptides of protein X4 of SARS-CoV Urbani” value is recorded as 0.4, the “Binding of serum SARS-green to linear peptides of protein X4 of SARS-CoV Urbani” value worked out at 0.6 and the “Binding of serum SARS-green to looped/cyclic peptides of protein X4 of SARS-CoV Urbani” value stood at 0.7. Besides, in test [3], the “Binding of serum SARS-yellow to linear peptides of protein X4 of SARS-CoV Urbani” value is listed as 0.9 and the “Binding of serum SARS-yellow to looped/cyclic peptides of protein X4 of SARS-CoV Urbani” value is 0.7.

With TRSMWSFNPETNILL, in test [1], the “Rabbit serum linear peptides” value is listed as 0.1 and the “Rabbit serum looped peptides” value came to 0.3. In test [2], the “Binding of Control Serum Blood-Bank to Looped peptides of the protein M of SARS-CoV Urbani” value was 0.9, the “Binding of Control serum Blood-bank to linear peptides of the protein M of SARS-CoV Urbani” value turned out to be 0.7, the “Binding of Control serum LUMC to linear peptides of the protein M of SARS-CoV Urbani” value stood at 0.8 and the “Binding of Control serum LUMC to looped peptides of the protein M of SARS-CoV Urbani” value was determined as 0.9. For the same sequence, in test [3], the “Binding of serum 1a to linear peptides of protein M of SARS-CoV Urbani” value is given as 0.8, the “Binding of serum 1a to looped/cyclic peptides of protein M of SARS-CoV Urbani” value worked out at 1.0, the “Binding of serum 1b to linear peptides of protein M of SARS-CoV Urbani” value came out at 0.7 and the “Binding of serum 1b to looped/cyclic peptides of protein M of SARS-CoV Urbani” value was 0.4. For the same sequence, in test [3], the “Binding of serum 2 to linear peptides of protein M of SARS-CoV Urbani” value stood at 0.5, the “Binding of serum 2 to looped/cyclic peptides of protein M of SARS-CoV Urbani” value was 0.8, the “Binding of serum 6 to linear peptides of protein M of SARS-CoV Urbani” value was 0.5 and the “Binding of serum 6 to looped/cyclic peptides of protein M of SARS-CoV Urbani” value was found to be 0.9. Besides, in test [3], the “Binding of serum 37 to linear peptides of protein M of SARS-CoV Urbani” value was found to be 0.5, the “Binding of serum 37 to looped/cyclic peptides of protein M of SARS-CoV Urbani” value was 1.1, the “Binding of serum 62 to linear peptides of protein M of SARS-CoV Urbani” value was 0.4 and the “Binding of serum 62 to looped/cyclic peptides of protein M of SARS-CoV Urbani” value is on record as 1.1. In addition, in test [3], the “Binding of serum London to linear peptides of protein M of SARS-CoV Urbani” value is listed as 0.3, the “Binding of serum London to looped/cyclic peptides of protein M of SARS-CoV Urbani” value was 0.3, the “Binding of serum SARS-green to linear peptides of protein M of SARS-CoV Urbani” value is on record as 0.5 and the “Binding of serum SARS-green to looped/cyclic peptides of protein M of SARS-CoV Urbani” value came out at 0.5. In test [3], the “Binding of serum SARS-yellow to linear peptides of protein M of SARS-CoV Urbani” value was determined as 0.3 and the “Binding of serum SARS-yellow to looped/cyclic peptides of protein M of SARS-CoV Urbani” value is 0.7.
